Measured values: US20090048293A1 (priority 2005, published 2009)
Where “and” joins values, the source holds several entries; their conditions need not be identical. Identical values can stand only once. Entries after “also recorded” stand apart in the source; their conditions may differ. Like-named read-outs stand apart in the source and are kept apart here. Where a SMILES comes first, the peptide text is derived from it. [ ]: non-standard residue; d: D form. The star is where a group is joined. Sta = CC(C)C[C@H](N)[C@@H](O)CC(=O)O; Isovaleryl = CC(C)CC(=O)*

Key:
Npr599 = format: biochemical, Bacillus anthracis
InhA = format: biochemical, Bacillus anthracis
[1] = system: syndecan-1 shedding of NMuMG cells; format: cell-based, murine
[2] = system: syndecan-1 ectodomain shedding from NMuMG cells; format: cell-based, murine
TLR2 = format: cell-based

O[C@@H](CS)[C@@H](O)CS [DTT]
Effect on Npr599 caseinolytic activity (in words) (Npr599): inhibits | Effect on InhA caseinolytic activity (in words) (InhA): inhibits

[Ni+2] [Ni2+]
Remaining activity (%) Npr599 (Npr599): 46 (1.4) % and 77 (1.4) % | Remaining activity (%) InhA (InhA): 45 (3.4) % and 69 (1.3) %

O=S(=O)(F)Cc1ccccc1 [PMSF, phenylmethanesulfonyl fluoride]
Remaining protease activity (%) Npr599 (Npr599): 88.2% and 100.9% and 87.2% | Remaining protease activity (%) InhA (InhA): 111.1% and 109.8% and 94.7%

CC(C)CC(=O)N[C@H](C(=O)N[C@H](C(=O)N[C@@H](CC(C)C)[C@@H](O)CC(=O)N[C@@H](C)C(=O)N[C@@H](CC(C)C)[C@@H](O)CC(=O)O)C(C)C)C(C)C [Pepstatin A, pepstatin A] (Isovaleryl-VV[Sta]A[Sta]-OH)
Remaining protease activity (%) Npr599 (Npr599): 67.6% and 75.3% and 77.9%

Cc1ccc(C(=O)Nc2ccc(S(=O)(=O)O)c3cc(S(=O)(=O)O)cc(S(=O)(=O)O)c23)cc1NC(=O)c1cccc(NC(=O)Nc2cccc(C(=O)Nc3cc(C(=O)Nc4ccc(S(=O)(=O)O)c5cc(S(=O)(=O)O)cc(S(=O)(=O)O)c45)ccc3C)c2)c1 [suramin]
Effect on AnlO-induced syndecan-1 shedding (in words) [1]: reduce | Effect on LeTx-induced syndecan-1 shedding (in words) [1]: reduce | Effect on syndecan-1 shedding induced by proteases (in words) [2]: effectively inhibits | Effect on syndecan shedding (in words) ([2]; 20 μM): stimulates

Cl.N[C@@H](CS)C(=O)O [L-Cysteine.HCl]
Effect on Npr599 caseinolytic activity (in words) (Npr599; 1 mM): no substantial inhibiting activity | Effect on InhA caseinolytic activity (in words) (InhA; 1 mM): no substantial inhibiting activity

O=C1c2ccccc2-c2n[nH]c3cccc1c23 [JNK inhibitor, JNK inhibitor II]
Effect on protease-enhanced syndecan-1 release (in words) [2]: strongly inhibits | Effect on protease-enhanced syndecan-1 shedding (in words) [2]: some stimulatory effect

CC(=O)N[C@@H](CC(C)C)C(=O)N[C@@H](CC(C)C)C(=O)N[C@H](C=O)CCCNC(=N)N [Leupeptin, leupeptin]
Remaining protease activity (%) Npr599 (Npr599): 95.4% and 106.2% | Remaining protease activity (%) InhA (InhA): 75.1% and 105.6% and 111.4%

[Ca+2] [Ca2+]
Effect on Npr599 caseinolytic activity (in words) (Npr599): do not | Remaining activity (%) Npr599 (Npr599): 86 (1.5) % and 97 (1.4) % | Effect on InhA caseinolytic activity (in words) (InhA): do not | Remaining activity (%) InhA (InhA): 91 (5.2) % and 94 (3.5) %

[Cu+2] [Cu2+]
Effect on Npr599 caseinolytic activity (in words) (Npr599): inhibit | Remaining activity (%) Npr599 (Npr599): 1 (1.0) % and 0 (0.0) % | Effect on InhA caseinolytic activity (in words) (InhA): inhibit | Remaining activity (%) InhA (InhA): 0 (0.0) %

[Zn+2] [Zn2+]
Effect on Npr599 caseinolytic activity (in words) (Npr599): inhibit | Effect on InhA caseinolytic activity (in words) (InhA): inhibit

CNC(=O)[C@H](Cc1c[nH]c2ccccc12)NC(=O)[C@@H](CC(=O)NO)CC(C)C [Galardin, Galardin (Ilomastat)]
Effect on AnlO-induced syndecan-1 shedding (in words) [1]: reduce | Effect on Npr599-activated syndecan-1 shedding (in words) [2]: abrogate | Effect on Npr599 caseinolytic activity (in words) (Npr599): inhibits Npr599 activity strongly | Effect on InhA caseinolytic activity (in words) (InhA): less sensitive; also recorded: not InhA activity significantly | Remaining protease activity (%) InhA (InhA): 70.5% and 104% and 103.3%

CC(C)C[C@H](NP(=O)(O)O[C@@H]1O[C@@H](C)[C@H](O)[C@@H](O)[C@H]1O)C(=O)N[C@@H](Cc1c[nH]c2ccccc12)C(=O)O [Phosphoramidon, phosphoramidon]
Effect on Npr599-activated syndecan-1 shedding (in words) [2]: abrogate | Effect on InhA caseinolytic activity (in words) (InhA): less sensitive | Remaining protease activity (%) InhA (InhA): 45.3% and 80.3% and 87.1%

OCCS [b-mercaptoethanol, β-mercaptoethanol]
Remaining protease activity (%) Npr599 (Npr599): 85.4% and 133.4% and 120.7% | Effect on Npr599 caseinolytic activity (in words) (Npr599; 1 mM): no substantial inhibiting activity | Remaining protease activity (%) InhA (InhA): 85.8% and 105.8% and 113.4% | Effect on InhA caseinolytic activity (in words) (InhA; 1 mM): no substantial inhibiting activity

O=C(O)CN(CCN(CC(=O)O)CC(=O)O)CC(=O)O [EDTA, ethylenediaminetetraacetic acid]
Effect on Npr599 caseinolytic activity (in words) (Npr599): rapidly inhibited | Remaining protease activity (%) Npr599 (Npr599): 6.5% and 9.5% and 10.5% | Effect on InhA caseinolytic activity (in words) (InhA): rapidly inhibited | Remaining protease activity (%) InhA (InhA): 28.2% and 28.7% and 33.1%

CC(C)C[C@H](NC(=O)[C@H]1O[C@@H]1C(=O)O)C(=O)NCCCCN=C(N)N [E-64]
Remaining protease activity (%) Npr599 (Npr599): 74.1% and 76.1% and 79.5% | Remaining protease activity (%) InhA (InhA): 59.1% and 78.4% and 83.5%

[Mg+2] [Mg2+]
Effect on Npr599 caseinolytic activity (in words) (Npr599): do not | Remaining activity (%) Npr599 (Npr599): 83 (2.8) % and 97 (1.4) % | Effect on InhA caseinolytic activity (in words) (InhA): do not | Remaining activity (%) InhA (InhA): 76 (6.1) % and 97 (1.7) %

[Fe+2] [Fe2+]
Effect on Npr599 caseinolytic activity (in words) (Npr599): inhibit | Effect on InhA caseinolytic activity (in words) (InhA): inhibit

COc1cccc(-c2cc(=O)c3ccccc3o2)c1N [PD98059]
Effect on protease-enhanced syndecan-1 release (in words) [2]: strongly inhibits | Effect on protease-enhanced syndecan-1 shedding (in words) [2]: some stimulatory effect

[Mn+2] [Mn2+]
Effect on Npr599 caseinolytic activity (in words) (Npr599): do not | Remaining activity (%) Npr599 (Npr599): 79 (0.2) % and 96 (4.3) % | Effect on InhA caseinolytic activity (in words) (InhA): do not | Remaining activity (%) InhA (InhA): 103 (2.5) % and 91 (5.1) %

c1cnc2c(c1)ccc1cccnc12 [1,10-phenanthroline, 1, 10-phenanthroline]
Effect on AnlO-induced syndecan-1 shedding (in words) [1]: reduce | Effect on LeTx-induced syndecan-1 shedding (in words) [1]: reduce | Effect on Npr599-activated syndecan-1 shedding (in words) [2]: abrogate | Effect on TLR2 signaling stimulated by B. anthracis culture supernatant (in words) (TLR2): abrogated | Effect on Npr599 caseinolytic activity (in words) (Npr599): rapidly inhibited | Effect on Npr599 caseinolytic activity (in words) (Npr599; 1 mM): completely abolishes | Effect on InhA caseinolytic activity (in words) (InhA): rapidly inhibited | Remaining protease activity (%) InhA (InhA): 0% | Effect on InhA caseinolytic activity (in words) (InhA; 1 mM): completely abolishes

CCCCCCCCCCCCOS(=O)(=O)[O-].[Na+] [SDS]
Activation of Npr599 (Npr599; 3.5 μM): approximately 2.4 fold
